Legend:
Kasumi-1 = test: CCK-8 tumor cell proliferation, Kasumi-1; format: cell-based, Human; conditions: 72 h
Outline: (§1)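 Ten-point titrations (10 μM highest, 5-fold steps) were applied to cells 24 h after seeding. After treatment at 37 °C, 5% CO2, cell viability was read with CCK-8 and IC50 values were computed from the resulting inhibition curves.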

Mino = test: CCK-8 tumor cell proliferation, Mino; format: cell-based, Human; conditions: Table 13, designed based on BCR-ABL inhibitors; 72 h
Outline: as §1

K562 = test: CCK-8 tumor cell proliferation, K562; parameters: species or system Human; conditions: Table 13, designed based on BCR-ABL inhibitors; 72 h
Description: (§2) The tumor cells used herein were cultured in a cell culture medium listed in table 4 at 37° C. in an incubator with 5% CO2. Prior to experimentation, all cells used were correctly identified by STR profiling, and tested negative for mycoplasma through routine screenings.
(§3) IC50 values of the compounds of the present disclosure (including the compounds in Tables 1 and 3, and compounds of examples) were measured using the Meilun Cell Counting Kit-8 kit from Dalian Meilun Biotech Co., Ltd. Assay details are as follows: tumor cells were seeded in a 96-well plate at a density listed in Table 5. After 24 h, 100 μL of the inoculated cells were treated with 0.5 μL of the compounds of the present disclosure (including the compounds in Tables 1 and 3, and compounds of examples) at 10 different successively decreasing concentrations (starting at the highest concentration of 10 μM; 5-fold serial dilutions). After the cells were treated with the compounds of the present disclosure for a period of time, the cell viability detection reagent was added to the culture medium for cell viability assessment according to the instructions provided with the CCK-8 kit. […] The growth inhibition of the compounds of the present disclosure on cells was plotted by Prism Graphpad software, and the IC50 values of the compounds of the present disclosure were calculated therefrom.

Ramos = test: CCK-8 tumor cell proliferation, Ramos; conditions: Homo sapiens, Table 9, designed based on SHP2 inhibitors, 72 h, read-out: IC50 for inhibiting the proliferation of tumor cells, Ramos
Description: as §2, §3

CCRF-CEM = test: CCK-8 tumor cell proliferation, CCRF-CEM; format: cell-based, Human; parameters: IC50 for inhibiting the proliferation of tumor cells, CCRF-CEM: scale not given here; conditions: 96 h
Outline: as §1

MM.1S = test: CCK-8 tumor cell proliferation, MM.1S; format: cell-based; conditions: Table 6, designed based on STAT3 inhibitors; 72 h
Outline: as §1

SNU-182 = test: CCK-8 tumor cell proliferation, SNU-182; parameters: species or system Human; conditions: Table 6, designed based on STAT3 inhibitors; 96 h
Description: as §2, §3

T47D = test: CCK-8 tumor cell proliferation, T47D; format: cell-based, Human; conditions: Table 6, designed based on STAT3 inhibitors; 96 h
Outline: as §1

Daudi = test: CCK-8 tumor cell proliferation, Daudi; parameters: species or system Human; conditions: Table 13, designed based on BCR-ABL inhibitors; 96 h
Description: as §2, §3

CAL-62 = test: CCK-8 tumor cell proliferation, CAL-62; format: cell-based, Human; parameters: IC50 for inhibiting the proliferation of tumor cells, CAL-62: scale not given here; conditions: Table 13, designed based on BCR-ABL inhibitors; 72 h
Outline: as §1

SU-DHL-6 = test: CCK-8 tumor cell proliferation, SU-DHL-6; format: cell-based, Human; conditions: Table 14, designed based on CDK4/6 inhibitors; 72 h
Description: as §2, §3

HGC-27 = test: CCK-8 tumor cell proliferation, HGC-27; format: cell-based, Human; conditions: Table 14, designed based on CDK4/6 inhibitors; 96 h
Description: as §2, §3

SR = test: CCK-8 tumor cell proliferation, SR; format: cell-based, Human; conditions: Table 14, designed based on CDK4/6 inhibitors; 72 h
Outline: as §1

SK-OV-3 = test: CCK-8 tumor cell proliferation, SK-OV-3; conditions: Table 14, designed based on CDK4/6 inhibitors
Description: as §3

TMD8 = test: CCK-8 tumor cell proliferation, TMD8; parameters: species or system Human; conditions: Table 13, designed based on BCR-ABL inhibitors; 72 h
Description: as §2, §3

[1] = Table 13, designed based on BCR-ABL inhibitors
[2] = Table 6, designed based on STAT3 inhibitors

## Cc1nc(Nc2ncc(C(=O)Nc3c(C)cccc3Cl)s2)cc(N2CCN(Cc3ccc4c(c3)CN(C3CCC(=O)NC3=O)C4=O)CC2)n1 (stereo not shown) [GT-03215, N-(2-chloro-6-methylphenyl)-2-((6-(4-((2-(2,6-dioxopiperidin-3-yl)-1-oxoisoindolin-5-yl)methyl)piperazin-1-yl)-2-methylpyrimidin-4-yl)amino)thiazole-5-carboxamide]
Kasumi-1; [1]
  IC50 for inhibiting the proliferation of tumor cells, Kasumi-1: A+
Mino
  IC50 for inhibiting the proliferation of tumor cells, Mino: A+
K562
  IC50 for inhibiting the proliferation of tumor cells, K562: A+

## CC1(N)CCN(c2cnc(-c3cccc(Cl)c3Cl)c(N)n2)CC1 [GT-03334]
Ramos
  IC50: > 10 µM

## C[C@@H]1OCC2(CCN(c3cnc(Sc4ccnc(N)c4Cl)c(N)n3)CC2)[C@@H]1N [GT-03335]
Ramos
  IC50: > 10 µM

## CC1(N)CCN(c2cnc3c(-c4cccc(Cl)c4Cl)n[nH]c3n2)CC1 [GT-03336]
Ramos
  IC50: > 10 µM

## O=C1CCC(N2Cc3cc(CNC(=O)c4cc5c(o4)C(=O)c4ccccc4C5=O)ccc3C2=O)C(=O)N1 (stereo not shown) [GT-03383, N-((2-(2,6-dioxopiperidin-3-yl)-1-oxoisoindolin-5-yl)methyl)-4,9-dioxo-4,9-dihydronaphtho[2,3-b]furan-2-carboxamide]
CCRF-CEM; [2]
  IC50 for inhibiting the proliferation of tumor cells, CCRF-CEM: A+
Kasumi-1; [2]
  IC50 for inhibiting the proliferation of tumor cells, Kasumi-1: A+
MM.1S
  IC50 for inhibiting the proliferation of tumor cells, MM.1S: A+
SNU-182
  IC50 for inhibiting the proliferation of tumor cells, SNU-182: A+
T47D
  IC50 for inhibiting the proliferation of tumor cells, T47D: A+

## Cc1ccc(C(=O)Nc2ccc(CN3CCN(Cc4ccc5c(c4)CN(C4CCC(=O)NC4=O)C5=O)CC3)c(C(F)(F)F)c2)cc1C#Cc1cnc2cccnn12 (stereo not shown) [GT-03804, N-(4-((4-((2-(2,6-dioxopiperidin-3-yl)-1-oxoisoindolin-5-yl)methyl)piperazin-1-yl)methyl)-3-(trifluoromethyl)phenyl)-3-(imidazo[1,2-b]pyridazin-3-ylethynyl)-4-methylbenzamide]
CCRF-CEM; [1]
  IC50 for inhibiting the proliferation of tumor cells, CCRF-CEM: A+
Daudi
  IC50 for inhibiting the proliferation of tumor cells, Daudi: A+
Kasumi-1; [1]
  IC50 for inhibiting the proliferation of tumor cells, Kasumi-1: A+
Mino
  IC50 for inhibiting the proliferation of tumor cells, Mino: A+
K562
  IC50 for inhibiting the proliferation of tumor cells, K562: A+
CAL-62
  IC50 for inhibiting the proliferation of tumor cells, CAL-62: A+

## Cc1ccc(C(=O)Nc2ccc(N3CCN(Cc4ccc5c(c4)CN(C4CCC(=O)NC4=O)C5=O)CC3)c(C(F)(F)F)c2)cc1C#Cc1cnc2cccnn12 (stereo not shown) [GT-03805, N-(4-(4-((2-(2,6-dioxopiperidin-3-yl)-1-oxoisoindolin-5-yl)methyl)piperazin-1-yl)-3-(trifluoromethyl)phenyl)-3-(imidazo[1,2-b]pyridazin-3-ylethynyl)-4-methylbenzamide]
CCRF-CEM; [1]
  IC50 for inhibiting the proliferation of tumor cells, CCRF-CEM: A+
K562
  IC50 for inhibiting the proliferation of tumor cells, K562: A+

## Cc1nc2c(F)cc(-c3nc(Nc4ccc(N5CCC(N6CCN(Cc7ccc8c(c7F)CN(C7CCC(=O)NC7=O)C8=O)CC6)CC5)cn4)ncc3F)cc2n1C(C)C (stereo not shown) [GT-03900, 3-(4-fluoro-5-((4-(1-(6-((5-fluoro-4-(4-fluoro-1-isopropyl-2-methyl-1H-benzo[d]imidazol-6-yl)pyrimidin-2-yl)amino)pyridin-3-yl)piperidin-4-yl)piperazin-1-yl)methyl)-1-oxoisoindolin-2-yl)piperidine-2,6-dione]
SU-DHL-6
  IC50 for inhibiting the proliferation of tumor cells, SU-DHL-6: A+
HGC-27
  IC50 for inhibiting the proliferation of tumor cells, HGC-27: A+
SR
  IC50 for inhibiting the proliferation of tumor cells, SR: A+
SK-OV-3
  IC50 for inhibiting the proliferation of tumor cells, SK-OV-3: A+

## Cc1nc2c(F)cc(-c3nc(Nc4ccc(N5CCC(N6CCN(Cc7cc8c(cc7F)C(=O)N(C7CCC(=O)NC7=O)C8)CC6)CC5)cn4)ncc3F)cc2n1C(C)C (stereo not shown) [GT-03901, 3-(6-fluoro-5-((4-(1-(6-((5-fluoro-4-(4-fluoro-1-isopropyl-2-methyl-1H-benzo[d]imidazol-6-yl)pyrimidin-2-yl)amino)pyridin-3-yl)piperidin-4-yl)piperazin-1-yl)methyl)-1-oxoisoindolin-2-yl)piperidine-2,6-dione]
SU-DHL-6
  IC50 for inhibiting the proliferation of tumor cells, SU-DHL-6: A+
HGC-27
  IC50 for inhibiting the proliferation of tumor cells, HGC-27: A+
SR
  IC50 for inhibiting the proliferation of tumor cells, SR: A+
SK-OV-3
  IC50 for inhibiting the proliferation of tumor cells, SK-OV-3: A+

## Cc1nc2c(F)cc(-c3nc(Nc4ccc(N5CCC(N6CCN(Cc7cc(F)c8c(c7)CN(C7CCC(=O)NC7=O)C8=O)CC6)CC5)cn4)ncc3F)cc2n1C(C)C (stereo not shown) [GT-03902, 3-(7-fluoro-5-((4-(1-(6-((5-fluoro-4-(4-fluoro-1-isopropyl-2-methyl-1H-benzo[d]imidazol-6-yl)pyrimidin-2-yl)amino)pyridin-3-yl)piperidin-4-yl)piperazin-1-yl)methyl)-1-oxoisoindolin-2-yl)piperidine-2,6-dione]
SU-DHL-6
  IC50 for inhibiting the proliferation of tumor cells, SU-DHL-6: A+
HGC-27
  IC50 for inhibiting the proliferation of tumor cells, HGC-27: A+
SR
  IC50 for inhibiting the proliferation of tumor cells, SR: A+
SK-OV-3
  IC50 for inhibiting the proliferation of tumor cells, SK-OV-3: A+

## Cc1nc2c(F)cc(-c3nc(Nc4ccc(N5CCC(N6CCN(Cc7cccc8c7CN(C7CCC(=O)NC7=O)C8=O)CC6)CC5)cn4)ncc3F)cc2n1C(C)C (stereo not shown) [GT-03903, 3-(4-((4-(1-(6-((5-fluoro-4-(4-fluoro-1-isopropyl-2-methyl-1H-benzo[d]imidazol-6-yl)pyrimidin-2-yl)amino)pyridin-3-yl)piperidin-4-yl)piperazin-1-yl)methyl)-1-oxoisoindolin-2-yl)piperidine-2,6-dione]
SU-DHL-6
  IC50 for inhibiting the proliferation of tumor cells, SU-DHL-6: A+
CCRF-CEM; Table 14, designed based on CDK4/6 inhibitors
  IC50 for inhibiting the proliferation of tumor cells, CCRF-CEM: A+
HGC-27
  IC50 for inhibiting the proliferation of tumor cells, HGC-27: A+
SR
  IC50 for inhibiting the proliferation of tumor cells, SR: A+
SK-OV-3
  IC50 for inhibiting the proliferation of tumor cells, SK-OV-3: A+

## Cc1ccc(NC(=O)c2ccc(CN(C)Cc3ccc4c(c3)CN(C3CCC(=O)NC3=O)C4=O)cc2)cc1Nc1nccc(-c2cccnc2)n1 (stereo not shown) [GT-03990, 4-((((2-(2,6-dioxopiperidin-3-yl)-1-oxoisoindolin-5-yl)methyl)(methyl)amino)methyl)-N-(4-methyl-3-((4-(pyridin-3-yl)pyrimidin-2-yl)amino)phenyl)benzamide]
TMD8
  IC50 for inhibiting the proliferation of tumor cells, TMD8: A+

Source: patent US20260199323A1, “LIGAND COMPOUNDS FOR E3 UBIQUITIN LIGASE, PROTEIN DEGRADERS DEVELOPED ON BASIS OF LIGAND COMPOUNDS, AND USES THEREOF” (GLUETACS THERAPEUTICS (SHANGHAI) CO., LTD., priority 2021, published 2026)
